From ChEMBL document CHEMBL1152023, “Phenyl pyrrolidine analogues as potent nicotinic acetylcholine receptor (nAChR) ligands” (Bioorg Med Chem Lett, 1995)

target: Neuronal acetylcholine receptor; assay: Ability to displace [3H](-)-cytisine from nicotinic acetylcholine receptor (nAChR) in a whole rat brain preparation

| Compound | Ki [nM] |
| --- | --- |
| CN1CCCC1c1ccc(C(F)(F)F)cc1 (configuration not stated) | 931 |
| COc1ccc(C2CCCN2C)cc1 (configuration not stated) | 707 |
| Clc1ccc(C2=NCCC2)cc1 | > 10000 |
| CN1CCCC1c1ccc(Br)cc1 (configuration not stated) | 75 |
| Fc1cccc(C2=NCCC2)c1 | > 10000 |
| CN1CCCC1c1ccc(F)cc1 (configuration not stated) | 207 |
| COc1ccccc1C1CCCN1C (configuration not stated) | > 10000 |
| Cc1ccc(C2CCCN2C)cc1 (configuration not stated) | 1330 |
| Cc1ccccc1C1CCCN1C (configuration not stated) | 9000 |
| CN1CCCC1c1ccc(Cl)cc1 (configuration not stated) | 164 |
| c1ccc(C2CCCN2)cc1 (configuration not stated) | 8700 |
| CN1CCCC1c1cccc(F)c1 (configuration not stated) | 399 |
| COc1cc2c(cc1O)CCN1CC=C3C=C[C@H](OC)C[C@]321 [ERYSODINE] | 5 |

Further lines, results first:

| Ki [nM] | Compound |
| --- | --- |
| 9700 | COc1ccc(C2CCCN2C)cc1OC (configuration not stated) |
| 597 | COc1cccc(C2CCCN2C)c1 (configuration not stated) |
| 420 | CN1CCCC1c1ccc(F)c(F)c1 (configuration not stated) |
| 227 | CN1CCCC1c1cccc(Cl)c1 (configuration not stated) |
| 68 | CN1CCCC1c1ccc(Cl)c(Cl)c1 (configuration not stated) |
| 719 | Cc1cccc(C2CCCN2C)c1 (configuration not stated) |
| 46 | CN1CCCC1c1ccc2c(c1)OCO2 (configuration not stated) |
| 8250 | COc1cc(C2CCCN2C)ccc1O (configuration not stated) |
| 1220 | CN1CCCC1c1ccc2c(c1)OCCO2 (configuration not stated) |
